Results as given in ChEMBL document CHEMBL4428075, “New antiproliferative 7-(4-(N-substituted carbamoylmethyl)piperazin-1-yl) derivatives of ciprofloxacin induce cell cycle arrest at G2/M phase” (Bioorg Med Chem, 2016).
Calls of active or inactive are those of the source. The rule behind the calls is not given here.

How the values were obtained:
IGROV-1 = test: Antiproliferative activity against human IGROV1 cells at 10^-5 M after 48 hrs by SRB assay; type: functional; conditions: IGROV-1, 48 h, read-out: GI
A549 [1] = test: Induction of p53 expression in human A549 cells at 25 uM after 24 hrs in presence of PFTalpha by Western blot analysis; type: functional, cell-based
MDA-MB-435 = test: Antiproliferative activity against human MDA-MB-435 cells at 10^-5 M after 48 hrs by SRB assay; type: functional; conditions: MDA-MB-435, 48 h, read-out: GI
A549 [2] = test: Induction of cell cycle arrest in human A549 cells assessed as accumulation at sub G1 phase at 15 uM after 24 hrs by FITC-labeled anti-BrdU antibody/7AAD staining based FACS calibur flow cytometric analysis (reference value: 0.82 %); type: functional
Hs-578T = test: Antiproliferative activity against human Hs 578T cells at 10^-5 M after 48 hrs by SRB assay; type: functional; conditions: read-out: GI
SF-539 = test: Antiproliferative activity against human SF539 cells at 10^-5 M after 48 hrs by SRB assay; type: functional; conditions: SF-539, 48 h, read-out: GI
SNB-75 = test: Antiproliferative activity against human SNB75 cells at 10^-5 M after 48 hrs by SRB assay; type: functional; conditions: SNB-75, 48 h, read-out: GI
A549 [3] = test: Induction of cell cycle arrest in human A549 cells assessed as accumulation at G2/M phase after 24 hrs by FITC-labeled FACS calibur flow cytometric analysis; type: functional, cell-based
UACC-257 = test: Antiproliferative activity against human UACC257 cells at 10^-5 M after 48 hrs by SRB assay; type: functional; conditions: UACC-257, 48 h, read-out: GI
A549 [4] = test: Induction of cell cycle arrest in human A549 cells assessed as accumulation at G1 phase at 5 uM after 24 hrs by FITC-labeled anti-BrdU antibody/7AAD staining based FACS calibur flow cytometric analysis (reference value: 65.9 %); type: functional
BT-549 = test: Antiproliferative activity against human BT549 cells at 10^-5 M after 48 hrs by SRB assay; type: functional; conditions: BT-549, 48 h, read-out: GI
UACC-62 = test: Antiproliferative activity against human UACC62 cells at 10^-5 M after 48 hrs by SRB assay; type: functional; conditions: UACC-62, 48 h, read-out: GI
A549 [5] = test: Induction of cell cycle arrest in human A549 cells assessed as accumulation at G1 phase at 25 uM after 24 hrs by FITC-labeled anti-BrdU antibody/7AAD staining based FACS calibur flow cytometric analysis (reference value: 65.9 %); type: functional
WI-38 [6] = test: Upregulation of p53 expression human WI38 cells at 5 to 25 uM after 24 hrs by Western blot analysis; type: ADME, cell-based; conditions: wi-38, 24 h
OVCAR-8 = test: Antiproliferative activity against human OVCAR8 cells at 10^-5 M after 48 hrs by SRB assay; type: functional; conditions: OVCAR-8, 48 h, read-out: GI
SF-295 = test: Antiproliferative activity against human SF295 cells at 10^-5 M after 48 hrs by SRB assay; type: functional; conditions: SF-295, 48 h, read-out: GI
TK-10 = test: Antiproliferative activity against human TK10 cells at 10^-5 M after 48 hrs by SRB assay; type: functional; conditions: TK-10, 48 h, read-out: GI
A549 [7] = test: Induction of cell cycle arrest in human A549 cells assessed as accumulation at G2/M phase at 15 uM after 24 hrs by FITC-labeled anti-BrdU antibody/7AAD staining based FACS calibur flow cytometric analysis (reference value: 12.61 %); type: functional
RXF 393 = test: Antiproliferative activity against human RXF393 cells at 10^-5 M after 48 hrs by SRB assay; type: functional; conditions: RXF 393, 48 h, read-out: GI
HCC 2998 = test: Antiproliferative activity against human HCC2998 cells at 10^-5 M after 48 hrs by SRB assay; type: functional; conditions: HCC 2998, 48 h, read-out: GI
A549 [8] = test: Induction of cell cycle arrest in human A549 cells assessed as accumulation at sub G1 phase at 10 uM after 24 hrs by FITC-labeled anti-BrdU antibody/7AAD staining based FACS calibur flow cytometric analysis (reference value: 0.82 %); type: functional
MDA-MB-468 = test: Antiproliferative activity against human MDA-MB-468 cells at 10^-5 M after 48 hrs by SRB assay; type: functional; conditions: MDA-MB-468, 48 h, read-out: GI
WI-38 [9] = test: Downregulation of cdc2 expression in human WI38 cells at 5 to 25 uM after 24 hrs by Western blot analysis; type: ADME, cell-based; conditions: wi-38, 24 h
A549 [10] = test: Induction of cell cycle arrest in human A549 cells assessed as accumulation at G2/M phase at 25 uM after 24 hrs by FITC-labeled anti-BrdU antibody/7AAD staining based FACS calibur flow cytometric analysis (reference value: 12.61 %); type: functional
MOLT-4 = test: Antiproliferative activity against human MOLT4 cells at 10^-5 M after 48 hrs by SRB assay; type: functional; conditions: MOLT-4, 48 h, read-out: GI
NCI-H522 = test: Antiproliferative activity against human NCI-H522 cells at 10^-5 M after 48 hrs by SRB assay; type: functional; conditions: NCI-H522, 48 h, read-out: GI
MCF7 = test: Antiproliferative activity against human MCF7 cells at 10^-5 M after 48 hrs by SRB assay; type: functional; conditions: MCF7, 48 h, read-out: GI
HL-60(TB) = test: Antiproliferative activity against human HL-60(TB) cells at 10^-5 M after 48 hrs by SRB assay; type: functional; conditions: HL-60, 48 h, read-out: GI
OVCAR-4 = test: Antiproliferative activity against human OVCAR4 cells at 10^-5 M after 48 hrs by SRB assay; type: functional; conditions: OVCAR-4, 48 h, read-out: GI
A549 [11] = test: Induction of cell cycle arrest in human A549 cells assessed as accumulation at G2/M phase at 10 uM after 24 hrs by FITC-labeled anti-BrdU antibody/7AAD staining based FACS calibur flow cytometric analysis (reference value: 12.61 %); type: functional
A549 [12] = test: Induction of cell cycle arrest in human A549 cells assessed as accumulation at G1 phase at 15 uM after 24 hrs by FITC-labeled anti-BrdU antibody/7AAD staining based FACS calibur flow cytometric analysis (reference value: 65.9 %); type: functional
T47D = test: Antiproliferative activity against human T47D cells at 10^-5 M after 48 hrs by SRB assay; type: functional; conditions: read-out: GI
A549 [13] = test: Upregulation of p53 expression in human A549 cells after 24 hrs by Western blot analysis; type: functional, cell-based
NCI-H322M = test: Antiproliferative activity against human NCI-H322M cells at 10^-5 M after 48 hrs by SRB assay; type: functional; conditions: read-out: GI
A498 = test: Antiproliferative activity against human A498 cells at 10^-5 M after 48 hrs by SRB assay; type: functional; conditions: A498, 48 h, read-out: GI

Row | Compound | inhibition of growth at 10 µM (IGROV-1) [%] | inhibition of growth at 10 µM (MDA-MB-435) [%] | inhibition of growth at 10 µM (Hs-578T) [%] | inhibition of growth at 10 µM (SF-539) [%] | inhibition of growth at 10 µM (SNB-75) [%] | inhibition of growth at 10 µM (UACC-257) [%] | inhibition of growth at 10 µM (BT-549) [%] | inhibition of growth at 10 µM (UACC-62) [%] | inhibition of growth at 10 µM (OVCAR-8) [%] | inhibition of growth at 10 µM (SF-295) [%] | inhibition of growth at 10 µM (RXF 393) [%] | inhibition of growth at 10 µM (HCC 2998) [%] | inhibition of growth at 10 µM (MDA-MB-468) [%] | inhibition of growth at 10 µM (MOLT-4) [%] | inhibition of growth at 10 µM (NCI-H522) [%] | inhibition of growth at 10 µM (MCF7) [%] | inhibition of growth at 10 µM (HL-60(TB)) [%] | inhibition of growth at 10 µM (OVCAR-4) [%] | inhibition of growth at 10 µM (T47D) [%] | inhibition of growth at 10 µM (NCI-H322M) [%] | further results
1 | O=C(CN1CCN(c2cc3c(cc2F)c(=O)c(C(=O)O)cn3C2CC2)CC1)Nc1ccc(Cl)cc1 | 6.22 | 11.7 | 12.3 | 13.1 | 20.3 | 43 | 44.2 | 36.4 | 21.2 | 12.1 | 25.3 | 14.2 | 14 | 3.53 | 114 | 5.73 | 10.5 | 14.7 | 40.9 | 47.2 | Activity (A549 [1]): inactive; Activity (A549 [2]): 3.28%; Activity (A549 [3]): Dose-dependent effect; Activity (A549 [4]): 68.9%; Activity (A549 [5]): 24.8%; Activity (WI-38 [6]): Non-Toxic; inhibition of growth at 10 µM (TK-10): 13.9%; Activity (A549 [7]): 32.6%; Activity (A549 [8]): 4.19%; Activity (WI-38 [9]): Non-Toxic; Activity (A549 [10]): 64%; Activity (A549 [11]): 22.6%; Activity (A549 [12]): 46%; Activity (A549 [13]): Dose-dependent effect; inhibition of growth at 10 µM (A498): 31.4%
2 | COc1ccc(NC(=O)CN2CCN(c3cc4c(cc3F)c(=O)c(C(=O)O)cn4C3CC3)CC2)cc1 | 0 | 1.51 | 5.32 | 5.31 | 12 | 16.9 | 5.78 | 10.5 | 6 | 2.32 | 11.8 | 0 | 6.39 | 0 | 12.9 | 0 | 0 | 0 | 24.5 | 26.4 | inhibition of growth at 10 µM (A498): 37.6%
3 | COc1cc(NC(=O)CN2CCN(c3cc4c(cc3F)c(=O)c(C(=O)O)cn4C3CC3)CC2)cc(OC)c1OC | 0 | 0 | 4.61 | 0 | 0 | 3.24 | 7.42 | 0.79 | 0 | 0 | 0 | 0 | 0 | 0 | 24.4 | 0 | 8.4 | 0 | 9.38 | 0 | inhibition of growth at 10 µM (TK-10): 10.5%; inhibition of growth at 10 µM (A498): 0%
